{
  "source": "ChEMBL document CHEMBL1828570",
  "about": "“Modeling the molecular basis for α4β1 integrin antagonism” (Bioorg Med Chem, 2011)",
  "biological_target": "Integrin alpha-4/beta-1 (Homo sapiens, UniProt P05556+P13612)",
  "sequence (P05556 whole entry)": "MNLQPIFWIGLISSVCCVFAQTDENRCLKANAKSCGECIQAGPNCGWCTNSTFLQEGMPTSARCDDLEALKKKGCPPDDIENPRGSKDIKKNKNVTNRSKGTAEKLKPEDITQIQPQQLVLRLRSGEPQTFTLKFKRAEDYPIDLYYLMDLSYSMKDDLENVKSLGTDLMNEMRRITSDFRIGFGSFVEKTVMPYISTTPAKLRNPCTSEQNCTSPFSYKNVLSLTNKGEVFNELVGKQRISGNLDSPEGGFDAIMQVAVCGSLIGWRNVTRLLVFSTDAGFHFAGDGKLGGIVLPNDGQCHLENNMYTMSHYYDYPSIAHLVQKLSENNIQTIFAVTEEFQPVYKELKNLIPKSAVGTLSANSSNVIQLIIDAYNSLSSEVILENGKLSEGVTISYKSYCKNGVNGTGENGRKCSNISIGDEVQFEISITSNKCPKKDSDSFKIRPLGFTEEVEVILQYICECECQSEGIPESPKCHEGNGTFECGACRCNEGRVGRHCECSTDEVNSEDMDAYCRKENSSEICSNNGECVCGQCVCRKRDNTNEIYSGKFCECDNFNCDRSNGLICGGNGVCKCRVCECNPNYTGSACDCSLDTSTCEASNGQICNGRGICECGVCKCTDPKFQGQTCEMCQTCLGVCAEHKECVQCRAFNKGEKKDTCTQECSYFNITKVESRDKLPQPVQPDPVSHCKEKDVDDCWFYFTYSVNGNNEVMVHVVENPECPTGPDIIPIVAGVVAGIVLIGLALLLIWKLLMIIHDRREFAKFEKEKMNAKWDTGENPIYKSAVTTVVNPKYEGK",
  "sequence (P13612 whole entry)": "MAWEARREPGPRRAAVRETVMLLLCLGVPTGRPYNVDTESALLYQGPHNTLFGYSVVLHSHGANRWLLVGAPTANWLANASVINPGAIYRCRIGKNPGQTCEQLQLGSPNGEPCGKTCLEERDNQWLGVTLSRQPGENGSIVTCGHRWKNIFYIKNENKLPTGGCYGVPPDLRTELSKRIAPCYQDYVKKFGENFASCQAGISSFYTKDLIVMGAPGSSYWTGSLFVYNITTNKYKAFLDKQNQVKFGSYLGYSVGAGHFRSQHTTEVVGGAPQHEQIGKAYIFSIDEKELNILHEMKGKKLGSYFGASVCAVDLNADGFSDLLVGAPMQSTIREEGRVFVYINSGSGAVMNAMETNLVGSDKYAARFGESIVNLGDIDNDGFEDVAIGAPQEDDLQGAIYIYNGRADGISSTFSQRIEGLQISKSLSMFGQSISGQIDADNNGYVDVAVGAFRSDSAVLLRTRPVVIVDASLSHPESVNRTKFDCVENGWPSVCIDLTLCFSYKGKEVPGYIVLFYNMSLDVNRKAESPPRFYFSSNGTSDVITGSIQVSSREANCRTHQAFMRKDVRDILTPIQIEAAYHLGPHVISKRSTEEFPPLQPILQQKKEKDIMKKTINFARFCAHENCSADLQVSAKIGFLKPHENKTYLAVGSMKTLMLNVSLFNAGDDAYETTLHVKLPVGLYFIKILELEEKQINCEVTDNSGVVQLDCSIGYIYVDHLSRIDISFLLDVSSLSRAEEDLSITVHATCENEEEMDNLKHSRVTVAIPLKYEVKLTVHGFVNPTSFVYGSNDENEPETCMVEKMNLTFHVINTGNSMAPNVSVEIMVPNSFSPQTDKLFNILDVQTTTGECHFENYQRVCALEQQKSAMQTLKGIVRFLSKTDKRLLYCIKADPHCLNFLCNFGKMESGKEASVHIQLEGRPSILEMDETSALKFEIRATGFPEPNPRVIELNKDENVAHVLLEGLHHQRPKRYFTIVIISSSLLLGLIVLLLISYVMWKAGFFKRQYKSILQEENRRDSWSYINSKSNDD",
  "assay": "Antagonist activity at alpha4beta1 integrin",
  "assay_type": "functional",
  "note": "pIC50: −log10 of the molar value.",
  "data": [
    {"smiles": "CS(=O)(=O)CCCCC1(C(=O)N[C@H](Cc2ccc(NC(=O)c3c(Cl)cccc3Cl)cc2)C(=O)O)CCC1", "values": [
      {"measurement": "pIC50", "result": 8.22}
    ]},
    {"smiles": "COCCCC[C@@]1(C(=O)N[C@H](Cc2ccc(-c3c(OC)cccc3OC)cc2)C(=O)O)CCCO1", "values": [
      {"measurement": "pIC50", "result": 8.90}
    ]},
    {"smiles": "CC(C)C(=O)Oc1cccc(OC(=O)C(C)C)c1-c1ccc(C[C@@H](NC(=O)[C@@]2(C)CCCN2S(=O)(=O)c2cc(Cl)cc(Cl)c2)C(=O)O)cc1", "values": [
      {"measurement": "pIC50", "result": 8.35}
    ]},
    {"smiles": "COc1cccc(OC)c1-c1ccc(C[C@@H](NC(=O)[C@@]2(C)CCN2S(=O)(=O)c2cc(Cl)cc(Cl)c2)C(=O)O)cc1", "values": [
      {"measurement": "pIC50", "result": 10.15}
    ]},
    {"smiles": "O=C(O)CC[C@H](NCS(=O)(=O)c1ccccc1)C(=O)N[C@@H](Cc1ccc(OCc2c(Cl)cccc2Cl)cc1)C(=O)O", "values": [
      {"measurement": "pIC50", "result": 8.70}
    ]},
    {"smiles": "CCCNc1c(N[C@@H](Cc2ccc(OCc3c(Cl)cccc3Cl)cc2)C(=O)O)c(=O)c1=O", "values": [
      {"measurement": "pIC50", "result": 7.17}
    ]},
    {"smiles": "O=C(Nc1ccc(C[C@H](NC(=O)[C@@H]2C3CCC(CC3)N2S(=O)(=O)c2ccccc2Cl)C(=O)O)cc1)c1cc(Cl)nc(Cl)c1", "values": [
      {"measurement": "pIC50", "result": 6.98}
    ]},
    {"smiles": "COc1cccc(OC)c1-c1ccc(C[C@H](NC[C@@H]2CCCN2S(=O)(=O)c2cc(Cl)cc(Cl)c2)C(=O)O)cc1", "values": [
      {"measurement": "pIC50", "result": 6.85}
    ]},
    {"smiles": "O=C(O)[C@@H](CSSCCNC(=O)C12CC3CC(CC(C3)C1)C2)NC12CC3CC(CC(C3)C1)C2", "values": [
      {"measurement": "pIC50", "result": 5.39}
    ]},
    {"smiles": "COc1ccccc1-c1ccc(C[C@H](NC(=O)Cc2ccccc2Cl)C(=O)O)cc1", "values": [
      {"measurement": "pIC50", "result": 7.43}
    ]}
  ]
}
